#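 Following 48 hours of exposure in 96-well plates, responses at five concentrations were used to interpolate endpoints linearly. Definition used: TGI = concentration required for complete inhibition of growth.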
# Tests used:
# Assay in all cases: inhibition of tumour cell growth, NCI panel, 48 h
# [1] = test system: 786-0 renal
# [2] = test system: A498 renal
# [3] = test system: A549 NSCLC
# [4] = test system: ACHN renal
# [5] = test system: BT-549 breast
# [6] = test system: CAKI-1 renal
# [7] = test system: COLO 205 colon
# [8] = test system: DU-145 prostate
# [9] = test system: EKVX NSCLC
# [10] = test system: HCC-2998 colon
# [11] = test system: HCT-116 colon
# [12] = test system: HCT-15 colon
# [13] = test system: HL-60(TB) leukemia
# [14] = test system: HOP-62 NSCLC
# [15] = test system: HOP-92 NSCLC
# [16] = test system: HS 578T breast
# [17] = test system: IGROV1 ovarian
# [18] = test system: K-562 leukemia
# [19] = test system: KM12 colon
# [20] = test system: LOX IMVI melanoma
# [21] = test system: M14 melanoma
# [22] = test system: MALME-3M melanoma
# [23] = test system: MCF7 breast
# [24] = test system: MDA-MB-231 breast
# [25] = test system: MDA-MB-435
# [26] = test system: MDA-N
# [27] = test system: NCI-H226 lung
# [28] = test system: NCI-H23 lung
# [29] = test system: NCI-H460 lung
# [30] = test system: NCI-H522 lung
# [31] = test system: NCI/ADR-RES ovarian
# [32] = test system: OVCAR-3 ovarian
# [33] = test system: OVCAR-4 ovarian
# [34] = test system: OVCAR-5 ovarian
# [35] = test system: OVCAR-8 ovarian
# [36] = test system: PC-3 prostate
# [37] = test system: RPMI-8226 leukemia
# [38] = test system: RXF 393 renal
# [39] = test system: SF-268 CNS
# [40] = test system: SF-295 CNS
# [41] = test system: SF-539 CNS
# [42] = test system: SK-MEL-2 melanoma
# [43] = test system: SK-MEL-28 melanoma
# [44] = test system: SK-MEL-5 melanoma
# [45] = test system: SK-OV-3 ovarian
# [46] = test system: SN12C renal
# [47] = test system: SNB-19 CNS
# [48] = test system: SNB-75 CNS
# [49] = test system: SW-620 colon
# [50] = test system: TK-10 renal
# [51] = test system: U251 CNS
# [52] = test system: UACC-257 melanoma
# [53] = test system: UACC-62 melanoma
# [54] = test system: UO-31 renal
# [55] = test system: HT29 colon
# [56] = test system: SR leukemia
# [57] = test system: T-47D breast
compound,measurement,setting,value
CN(C)c1ccc(/C=N/NC(=O)c2cnc3ccccc3c2)cc1,TGI,[1],> 100 µM
same,TGI,[2],> 100 µM
same,TGI,[3],> 100 µM
same,TGI,[4],> 100 µM
same,TGI,[5],> 100 µM
same,TGI,[6],> 100 µM
same,TGI,[7],> 100 µM
same,TGI,[8],> 100 µM
same,TGI,[9],> 100 µM
same,TGI,[10],> 100 µM
same,TGI,[11],> 100 µM
same,TGI,[12],> 100 µM
same,TGI,[13],> 100 µM
same,TGI,[14],> 100 µM
same,TGI,[15],> 100 µM
same,TGI,[16],63.5 µM
same,TGI,[17],> 100 µM
same,TGI,[18],> 100 µM
same,TGI,[19],> 100 µM
same,TGI,[20],> 100 µM
same,TGI,[21],> 100 µM
same,TGI,[22],> 100 µM
same,TGI,[23],> 100 µM
same,TGI,[24],> 100 µM
same,TGI,[25],34.5 µM
same,TGI,[26],> 100 µM
same,TGI,[27],> 100 µM
same,TGI,[28],> 100 µM
same,TGI,[29],> 100 µM
same,TGI,[30],> 100 µM
same,TGI,[31],> 100 µM
same,TGI,[32],> 100 µM
same,TGI,[33],> 100 µM
same,TGI,[34],> 100 µM
same,TGI,[35],> 100 µM
same,TGI,[36],> 100 µM
same,TGI,[37],> 100 µM
same,TGI,[38],54.9 µM
same,TGI,[39],53.3 µM
same,TGI,[40],> 100 µM
same,TGI,[41],> 100 µM
same,TGI,[42],> 100 µM
same,TGI,[43],> 100 µM
same,TGI,[44],> 100 µM
same,TGI,[45],> 100 µM
same,TGI,[46],> 100 µM
same,TGI,[47],> 100 µM
same,TGI,[48],50.6 µM
same,TGI,[49],> 100 µM
same,TGI,[50],> 100 µM
same,TGI,[51],> 100 µM
same,TGI,[52],> 100 µM
same,TGI,[53],> 100 µM
same,TGI,[54],> 100 µM
CC(C)=C=CC(C)(C)NS(=O)(=O)NC(C)(C)C=C=C(C)C,TGI,[1],> 100 µM
same,TGI,[2],> 100 µM
same,TGI,[3],> 100 µM
same,TGI,[4],> 100 µM
same,TGI,[6],> 100 µM
same,TGI,[7],> 100 µM
same,TGI,[8],> 100 µM
same,TGI,[9],> 100 µM
same,TGI,[10],> 100 µM
same,TGI,[11],> 100 µM
same,TGI,[12],> 100 µM
same,TGI,[13],> 100 µM
same,TGI,[14],> 100 µM
same,TGI,[15],> 100 µM
same,TGI,[16],> 100 µM
same,TGI,[55],> 100 µM
same,TGI,[17],> 100 µM
same,TGI,[18],> 100 µM
same,TGI,[19],> 100 µM
same,TGI,[20],> 100 µM
same,TGI,[21],> 100 µM
same,TGI,[22],> 100 µM
same,TGI,[23],> 100 µM
same,TGI,[25],> 100 µM
same,TGI,[26],> 100 µM
same,TGI,[27],> 100 µM
same,TGI,[28],> 100 µM
same,TGI,[29],> 100 µM
same,TGI,[30],> 100 µM
same,TGI,[31],> 100 µM
same,TGI,[32],> 100 µM
same,TGI,[33],> 100 µM
same,TGI,[34],> 100 µM
same,TGI,[35],> 100 µM
same,TGI,[36],> 100 µM
same,TGI,[39],> 100 µM
same,TGI,[40],> 100 µM
same,TGI,[41],> 100 µM
same,TGI,[42],> 100 µM
same,TGI,[43],> 100 µM
same,TGI,[44],> 100 µM
same,TGI,[45],> 100 µM
same,TGI,[46],> 100 µM
same,TGI,[47],> 100 µM
same,TGI,[48],> 100 µM
same,TGI,[56],> 100 µM
same,TGI,[49],> 100 µM
same,TGI,[57],> 100 µM
same,TGI,[50],> 100 µM
same,TGI,[51],> 100 µM
same,TGI,[52],> 100 µM
same,TGI,[53],> 100 µM

# Source: PubChem BioAssay (NCI)
